From patent US10517889B2, “Modulators of SMAD7 expression” (Ionis Pharmaceuticals, Inc., priority 2017, dated 2019)
Strand notation (5' to 3'): a small letter for the sugar, then the base; units joined by * are phosphorothioate-linked, units joined directly phosphodiester-linked; [ ] holds rarer units or linkages, { } end groups; capitals alone tell only the bases. k = constrained ethyl (cEt); [5mC] = 5-methylcytosine; d = 2'-deoxy (DNA)

Tested on: human SMAD7 mRNA
Assay: Antisense inhibition of human SMAD7 mRNA expression in Hep3B cells by 3-10-3 cEt gapmers, 10,000 nM, electroporation (Example 2)
Assay type: cell-based
Conditions: approximately 24 hours
Outline: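 Percent inhibition of SMAD7 mRNA, relative to untreated cells, after ~24 h exposure of electroporated Hep3B cells to 10,000 nM cEt gapmer; levels by qRT-PCR, corrected for total RNA.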

[1] = SMAD7 mRNA, Hep3B cells, electroporation with 10,000 nM antisense oligonucleotide, primer probe set RTS5062, relative to untreated control cells
[2] = Hep3B cells, electroporation with 10,000 nM antisense oligonucleotide, primer probe set RTS5062, relative to untreated control cells
[3] = SMAD7 mRNA, Hep3B cells, 10,000 nM antisense oligonucleotide, electroporation, primer probe set RTS5062, relative to untreated control cells
[4] = Hep3B cells, electroporation with 10,000 nM antisense oligonucleotide, SMAD7 mRNA by RT-PCR (RTS5062), relative to untreated control cells
[5] = Hep3B cells, 10,000 nM antisense oligonucleotide, electroporation, RT-PCR primer probe set RTS5062, relative to untreated control cells
[6] = Hep3B cells, electroporation, 10,000 nM antisense oligonucleotide, RTS5062, relative to untreated control cells

829849 (antisense kT*kG*kT*dT*dG*dT*d[5mC]*d[5mC]*dG*dA*dA*dT*dT*kG*kA*kG) [compound 829849]
% Inhibition [1]: 49%

799437 (antisense k[5mC]*k[5mC]*kA*dG*dA*dT*d[5mC]*dT*d[5mC]*dA*dG*dG*dT*k[5mC]*kA*kA) [compound 799437]
% inhibition of SMAD7 mRNA expression [2]: 26%

829754 (antisense kT*k[5mC]*kT*d[5mC]*d[5mC]*d[5mC]*d[5mC]*dG*d[5mC]*dA*dG*d[5mC]*dT*k[5mC]*kG*k[5mC]) [compound 829754]
% Inhibition [3]: 49%

798888 (kA*kA*kA*dG*d[5mC]*dT*dG*dA*dT*d[5mC]*dT*dG*d[5mC]*kA*k[5mC]*kG; antisense) [compound 798888]
% Inhibition [4]: 40%

798838 (k[5mC]*k[5mC]*kG*dA*dA*dT*dT*dG*dA*dG*d[5mC]*dT*dG*kT*k[5mC]*k[5mC]; antisense) [compound 798838]
% Inhibition [5]: 58%

798953 (antisense kA*kG*k[5mC]*dT*dA*dT*dT*dT*d[5mC]*dT*d[5mC]*dA*dA*kA*kG*kA) [compound 798953]
% Inhibition [2]: 17%

829732 (antisense k[5mC]*kA*kT*dG*dA*dA*dG*dA*dA*dG*dT*d[5mC]*dG*kG*kG*k[5mC]) [compound 829732]
% Inhibition [3]: 40%

798854 (kT*kA*k[5mC]*dA*d[5mC]*d[5mC]*d[5mC]*dA*d[5mC]*dA*d[5mC]*dA*d[5mC]*k[5mC]*kA*kT; antisense) [compound 798854]
% Inhibition [5]: 25%

798947 (antisense kA*k[5mC]*kA*dG*dA*dA*d[5mC]*dA*d[5mC]*dA*dA*dA*d[5mC]*kG*kA*kG) [compound 798947]
% inhibition of SMAD7 mRNA expression [2]: 52%

799963 (antisense kA*kG*k[5mC]*d[5mC]*dA*dT*dG*dG*d[5mC]*dA*dG*dA*dA*k[5mC]*k[5mC]*k[5mC]) [compound 799963]
% Inhibition [4]: 6%

800099 (antisense kT*kG*k[5mC]*dA*dA*dA*dG*dG*dG*dA*d[5mC]*d[5mC]*d[5mC]*kT*kT*kA) [compound 800099]
% Inhibition [4]: 6%

798681 (antisense kG*kA*kA*d[5mC]*dA*dT*dG*dA*d[5mC]*d[5mC]*dT*d[5mC]*d[5mC]*kG*k[5mC]*kA) [compound 798681]
% Inhibition [4]: 29%

798943 (antisense k[5mC]*kG*kA*dG*dG*dA*d[5mC]*dG*dA*dG*dA*dA*dG*kA*kA*kG) [compound 798943]
% inhibition of SMAD7 mRNA expression [2]: 13%

800045 (kG*kA*kG*dG*dA*dG*d[5mC]*dA*dA*dG*dG*dG*dA*kG*kT*kG; antisense) [compound 800045]
% Inhibition [4]: 59%

799657 (antisense kT*kA*k[5mC]*dA*dA*dG*dT*dG*dG*dT*dT*dG*d[5mC]*kT*kG*kG) [compound 799657]
% inhibition of SMAD7 mRNA expression [6]: 62%

829862 (antisense k[5mC]*kT*kG*d[5mC]*dT*dG*d[5mC]*dG*dG*dT*dT*dG*dT*kA*k[5mC]*kA) [compound 829862]
% Inhibition [1]: 22%

772713 (kA*kT*kA*dA*d[5mC]*dA*d[5mC]*d[5mC]*d[5mC]*dA*dT*dA*dG*kA*kA*kA; antisense) [compound 772713]
% Inhibition [3]: 24%

829874 (antisense kG*kT*kT*dG*dT*d[5mC]*d[5mC]*dA*dG*dT*dG*dT*dG*kG*k[5mC]*kG) [compound 829874]
% Inhibition [1]: 43%

798918 (kT*k[5mC]*kA*dG*d[5mC]*dT*d[5mC]*dA*d[5mC]*dG*d[5mC]*dT*d[5mC]*kT*kG*kT; antisense) [compound 798918]
% Inhibition [4]: 44%

799651 (antisense kA*kG*kG*dA*d[5mC]*dA*dG*d[5mC]*dA*dG*dA*d[5mC]*dA*kG*kG*k[5mC]) [compound 799651]
% Inhibition (Hep3B cells, electroporation with 10,000 nM antisense oligonucleotide, RTS5062, percent inhibition of SMAD7 mRNA relative to untreated control cells): 55%

799359 (kT*kG*kT*dT*dA*dA*dA*dG*d[5mC]*dT*dG*dA*dG*k[5mC]*k[5mC]*k[5mC]; antisense) [compound 799359]
% inhibition of SMAD7 mRNA expression [2]: 22%

772809 (k[5mC]*k[5mC]*kT*dA*dA*dA*d[5mC]*dT*dG*dA*dG*d[5mC]*d[5mC]*k[5mC]*k[5mC]*kA; antisense) [compound 772809]
% Inhibition [3]: 48%

799163 (antisense kA*kA*kG*dT*dA*dT*d[5mC]*dA*dT*dA*d[5mC]*dG*dA*kG*kT*kG) [compound 799163]
% inhibition of SMAD7 mRNA expression [2]: 45%

829983 (kG*kG*k[5mC]*dG*dG*dT*dG*dA*dT*dT*dG*d[5mC]*d[5mC]*kT*kT*kG; antisense) [compound 829983]
% Inhibition [1]: 43%

799920 (antisense kG*kA*kT*dG*dA*dA*dT*dG*d[5mC]*dT*d[5mC]*d[5mC]*dT*kA*kA*kG) [compound 799920]
% Inhibition [4]: 0%

799535 (kA*kA*k[5mC]*dT*dT*dA*dA*dG*dG*d[5mC]*dA*dT*dA*kT*kA*kA; antisense) [compound 799535]
% inhibition of SMAD7 mRNA expression [6]: 42%

830032 (antisense kG*k[5mC]*kT*dA*d[5mC]*d[5mC]*dT*dA*dA*dT*dG*dT*d[5mC]*kA*kA*k[5mC]) [compound 830032]
% Inhibition [4]: 35%

798906 (kG*k[5mC]*kT*dA*d[5mC]*d[5mC]*dG*dG*d[5mC]*dT*dG*dT*dT*kG*kA*kA; antisense) [compound 798906]
% Inhibition [5]: 0%

830189 (antisense kT*kT*kG*dG*dA*dG*d[5mC]*dA*dA*d[5mC]*dA*d[5mC]*d[5mC]*kA*kG*kA) [compound 830189]
% Inhibition [4]: 49%

830090 (kA*kT*kA*d[5mC]*dA*d[5mC]*dA*dA*dG*dA*d[5mC]*d[5mC]*d[5mC]*kT*kG*kT; antisense) [compound 830090]
% Inhibition [4]: 10%

830005 (antisense k[5mC]*kT*k[5mC]*dA*d[5mC]*d[5mC]*dA*dG*dT*dT*dG*dG*dT*kT*kT*kG) [compound 830005]
% Inhibition [1]: 13%

798964 (antisense k[5mC]*k[5mC]*k[5mC]*dT*dT*d[5mC]*dT*dT*d[5mC]*d[5mC]*dA*dA*dA*kA*kA*kA) [compound 798964]
% inhibition of SMAD7 mRNA expression [2]: 32%

799035 (k[5mC]*kG*k[5mC]*d[5mC]*dA*dG*d[5mC]*dT*dT*dG*d[5mC]*d[5mC]*d[5mC]*kA*kG*kG; antisense) [compound 799035]
% Inhibition [2]: 0%

799576 (kG*kA*kA*dA*dG*dG*dA*d[5mC]*d[5mC]*d[5mC]*dT*dT*dT*k[5mC]*kA*kA; antisense) [compound 799576]
% inhibition of SMAD7 mRNA expression [6]: 25%

790461 (k[5mC]*k[5mC]*kG*dG*dG*d[5mC]*dA*dG*dG*dA*dG*d[5mC]*dG*kG*k[5mC]*kG; antisense) [compound 790461]
% inhibition of SMAD7 mRNA expression [2]: 42%

798997 (antisense kG*k[5mC]*kA*d[5mC]*dA*d[5mC]*dT*d[5mC]*dA*d[5mC]*dA*d[5mC]*dT*k[5mC]*kA*k[5mC]) [compound 798997]
% Inhibition [2]: 12%

800016 (kG*kT*kT*d[5mC]*dA*dT*dT*dT*dT*dA*dA*dA*dG*k[5mC]*kA*kT; antisense) [compound 800016]
% Inhibition [5]: 32%
